# Assay results reported in publication PMC4138991, “Building a Better Dynasore: The Dyngo Compounds Potently Inhibit Dynamin and Endocytosis” (Traffic (Copenhagen, Denmark), 2013).
# Legend:
# Type in all cases: cell-based, rat
# synaptosomes = assay: Glutamate release from synaptosomes (4-AP stimulated); conditions: 20 μM, 30 min pretreatment, 3 mM 4-AP
# Description: Release of glutamate from synaptosomes was performed as described previously 60, with minor changes. The assay was carried out at 37°C in a Perkin Elmer LS50 fluorimeter. Control (1% DMSO) and 4a‐treated samples were incubated in the presence of the compound for 30 min prior to stimulation of glutamate release. For each sample, 1 mg of crude P2 synaptosomes was diluted in 2 mL of HEPES‐buffered Krebs‐like buffer, either containing 1 mM EGTA (zero Ca^2+) or 1 mM EGTA plus 3 mM […] (2 mM free Ca^2+). NAPD^+ (3 mM) and glutamic acid dehydrogenase (50 U) were added and allowed to incubate for 15 min to allow residual glutamate in the sample to be metabolized. 4‐AP (3 mM) was subsequently added to stimulate glutamate release, which was recorded over a 5‐min period. Readings of fluorescence were taken every 2 seconds. All treatment conditions were carried out in zero Ca^2+ and 2 mM Ca^2+ conditions with the zero Ca^2+ measurement subtracted from the 2 mM measurement for each time point. […] Each treatment was carried out in duplicate within a single experiment and each independent experiment was carried out three times on separate days using synaptosomes prepared from fresh rat brain tissue ([…]).
# cultured CGNs [1] = assay: SV turnover by FM1-43 loading/unloading in cultured cerebellar granule neurons; conditions: 30 μM, 15 min preincubation
# Description: (§1) Granule neuron cultures were prepared from the cerebella of 7‐day‐old rat pups as previously described 57. In all experiments, neurons were used between 8 and 10 days in vitro.
# Neuronal cultures were removed from culture medium and left for 10 min in incubation medium [170 mM NaCl, 3.5 mM KCl, 0.4 mM KH2PO4, 20 mM TES (N‐tris[hydroxy‐methyl]‐methyl‐2‐aminoethane‐sulfonic acid), 5 mM NaHCO3, 5 mM glucose, 1.2 mM Na2SO4, 1.2 mM MgCl2 and 1.3 mM CaCl2, pH 7.4]. Cultures were then mounted in a Warner imaging chamber (RC‐21BRFS). Invaginating membrane was loaded with FM1‐43 (10 μM) by evoking SV turnover with a brief train of action potentials (80 Hz for 10 seconds, 100 mA and 1‐millisecond pulse width, delivered using platinum wires embedded in the imaging chamber). Dye kept present for 1 min after stimulation to ensure all retrieving membrane was labeled (S1 loading). After a 10‐min rest period, accumulated dye was unloaded from nerve terminals using two consecutive maximal stimuli with incubation media supplemented with 50 mM KCl (50 mM NaCl removed to maintain osmolarity). The fluorescence decrease due to dye loss provides an estimate of the total number of synaptic vesicles turned over during stimulation (S1). After a 20‐min rest period the S1 protocol was repeated (S2 loading and unloading). […]
# cultured CGNs [2] = assay: Fluorescent dextran uptake (ADBE) in CGNs; conditions: 30 μM, 15 min
# Description: as §1
# Uptake of tetramethyrhodamine‐dextran (40 kDa) into nerve terminals of CGNs was monitored as described previously 40. Briefly, cells were left for 10 min in incubation medium and then stimulated with a train of 800 action potentials (80 Hz for 10 seconds) in the presence of tetramethyrhodamine‐dextran (50 μM). Dyngo compound 4a (30 μM) was present for 15 min prior to and including action potential stimulation. Dextran loading was determined by the number of fluorescent puncta in a defined field of view ([…]) using a 20× air objective at 550‐nm excitation and >575‐nm emission. Threshold analysis was performed to discount regions too large to represent individual nerve terminals (diameter greater than […]). The number of dextran puncta per field for each experiment (usually 10 fields of view per experiment) was averaged and subtracted from background fluorescence. To ensure that the density of nerve terminals was consistent between fields and experimental conditions, experiments were performed on the same set of cultures.
compound,measurement,setting,value
"O=C(N/N=C/c1cc(O)c(O)cc1O)c1cc2ccccc2cc1O [4a, (E)-3-Hydroxy-N'-(2,4,5-trihydroxybenzylidene) -2-naphthohydrazide]",Ca2+-dependent glutamate release,synaptosomes,decrease in the release of glutamate only after 45 seconds
same,FM1-43 unloading (SV exocytosis),cultured CGNs [1],did not have a significant acute effect
same,maximum block of ADBE measured by dextran uptake,cultured CGNs [2],> 80%
